Test system: fine lines, wrinkles in the outer canthus of the eyes (crow's feet area)
Test: Roughness reduction [SEr] via Visioscan, Example 1
Format: in vivo, human
Set-up: Roughness [SEr] via Visioscan / Roughness [SEr] via Visioscan, Mean: scale not given here
Experimental: Three groups of women were recruited to evaluate and compare the efficacy of three anti-aging test products (targeting the periorbital eye area) intended to reduce the appearance of fine lines, wrinkles in the outer canthus of the eyes (crow's feet area) over a 12 week period. Wrinkle assessment was conducted instrumentally using a Visioscan image analysis system. Effectiveness of the test product was evaluated using panelist self-assessment via questionnaire responses comprised of 3-4 questions (Q1, Q2, Q3 & Q4). Each stage in the progression of treatments was photographically documented using a High Resolution Scientifically Matched Photography technique. Image analysis was utilized to quantify changes in fine lines and crow's feet condition observed in the Scientifically Matched Photographs.
Subject Selection: • Number: Six subjects (two per group) to complete the study. • Sex: Females • Race: Caucasian/Asian/Hispanic • Age Range: 40 through 60 years old
Test samples: • Topical 0.15% of Compound #222 in Oil (a 50/50 mixture of • Propylene Glycol Dicaprylate/Dicaprate and Caprylic/Capric Triglyceride) (Cohort 1) • Topical 0.15% of Compound #222 in PEG400 (Cohort 2) • Topical 0.05% of Compound #222 in PEG400 (Cohort 3)
Prior to baseline measurements being taken, areas of involvement were marked on the facial surface using a standard template, to ensure that instruments were repositioned in the same location at each visit. The biophysical measurements (Surface Evaluation of Living Skin via Visioscan) were conducted by a trained technician. Pre-treatment High Resolution Scientifically Matched Photographs were taken.
[…] After acclimating to ambient conditions, High Resolution Scientifically Matched Photographs were be taken and biophysical measurements (Surface Evaluation of Living Skin via Visioscan) were repeated using the standard template to identify test sites on the face. In addition (during the acclimation period) all participants were be asked to fill out a self-assessment questionnaire.
Surface Evaluation of Living Skin Visioscan: The Visioscan (Courage and Khazaka) took a direct image of the living skin using a measuring head containing a CCD-camera and two metal halogen lamps positioned opposite each other in order to ensure even illumination of the measuring field on the skin (Skin Pharmacol Appl Skin Physiol (1999), 12(1-2), 1-11 and Cosmetic & Toiletries magazine (2009), 124(6), 51-54). The grey level distribution of the pixels in the image correspond to different phenomena (white pixels represent desquamation on the skin, dark pixels represent lines and wrinkles). The software with the Visioscan automatically calculates skin smoothness, skin roughness, scaliness and wrinkle parameters. […]
The source data was Visioscan and PhotoGrammetrix Image Analysis readings along with subjective assessments, which were totaled and reported as average scores. Photographs were placed side by side as to compare the photographs of before and after application of the test product in the eye area. […] The data obtained via Visioscan and from PhotoGrammetrix Image Analysis was quoted as % differences from baseline at each of the previously described time points. A paired t-test analysis was conducted in order to compare the results of post test product application measurements to baseline measurements where applicable. Statistical significance was established if p≤(α=0.05) was calculated.

O=C(CCC(=O)c1ccc2c(c1)OCO2)c1ccccc1 [#222]
Roughness [SEr] via Visioscan, Mean (Day 7, Topical 0.05% in PEG (Cohort 3)): 1.64 | Roughness [SEr] via Visioscan, Mean (Day 7, Topical 0.15% in Oil (Cohort 1)): 1.97 | Roughness [SEr] via Visioscan, Mean (Day 7, Topical 0.15% in PEG (Cohort 2)): 1.67 | Roughness [SEr] via Visioscan, % Difference of Mean (Day 7 vs Baseline, Topical 0.05% in PEG (Cohort 3)): −20.24% | Roughness [SEr] via Visioscan, % Difference of Mean (Day 7 vs Baseline, Topical 0.15% in Oil (Cohort 1)): −10.36% | Roughness [SEr] via Visioscan, % Difference of Mean (Day 7 vs Baseline, Topical 0.15% in PEG (Cohort 2)): −10.19% | Roughness [SEr] via Visioscan, Mean (Day 14, Topical 0.05% in PEG (Cohort 3)): 1.51 | Roughness [SEr] via Visioscan, Mean (Day 14, Topical 0.15% in Oil (Cohort 1)): 1.77 | Roughness [SEr] via Visioscan, Mean (Day 14, Topical 0.15% in PEG (Cohort 2)): 1.62 | Roughness [SEr] via Visioscan, % Difference of Mean (Day 14 vs Baseline, Topical 0.05% in PEG (Cohort 3)): −26.59% | Roughness [SEr] via Visioscan, % Difference of Mean (Day 14 vs Baseline, Topical 0.15% in Oil (Cohort 1)): −19.36% | Roughness [SEr] via Visioscan, % Difference of Mean (Day 14 vs Baseline, Topical 0.15% in PEG (Cohort 2)): −12.53% | Roughness [SEr] via Visioscan (Subject #1, Day 7, Topical 0.15% in Oil (Cohort 1)): 2.46 | Roughness [SEr] via Visioscan, Individual % Difference (Subject #1, Day 7 vs Baseline, Topical 0.15% in Oil (Cohort 1)): −1.60% | Roughness [SEr] via Visioscan (Subject #1, Day 14, Topical 0.15% in Oil (Cohort 1)): 2.25 | Roughness [SEr] via Visioscan, Individual % Difference (Subject #1, Day 14 vs Baseline, Topical 0.15% in Oil (Cohort 1)): −9.82% | Roughness [SEr] via Visioscan (Subject #2, Day 7, Topical 0.15% in Oil (Cohort 1)): 1.48 | Roughness [SEr] via Visioscan, Individual % Difference (Subject #2, Day 7 vs Baseline, Topical 0.15% in Oil (Cohort 1)): −21.90% | Roughness [SEr] via Visioscan (Subject #2, Day 14, Topical 0.15% in Oil (Cohort 1)): 1.29 | Roughness [SEr] via Visioscan, Individual % Difference (Subject #2, Day 14 vs Baseline, Topical 0.15% in Oil (Cohort 1)): −31.93% | Roughness [SEr] via Visioscan (Subject #3, Day 7, Topical 0.15% in PEG (Cohort 2)): 1.95 | Roughness [SEr] via Visioscan, Individual % Difference (Subject #3, Day 7 vs Baseline, Topical 0.15% in PEG (Cohort 2)): −11.79% | Roughness [SEr] via Visioscan (Subject #3, Day 14, Topical 0.15% in PEG (Cohort 2)): 1.90 | Roughness [SEr] via Visioscan, Individual % Difference (Subject #3, Day 14 vs Baseline, Topical 0.15% in PEG (Cohort 2)): −13.83% | Roughness [SEr] via Visioscan (Subject #4, Day 7, Topical 0.15% in PEG (Cohort 2)): 1.39 | Roughness [SEr] via Visioscan, Individual % Difference (Subject #4, Day 7 vs Baseline, Topical 0.15% in PEG (Cohort 2)): −7.84% | Roughness [SEr] via Visioscan (Subject #4, Day 14, Topical 0.15% in PEG (Cohort 2)): 1.35 | Roughness [SEr] via Visioscan, Individual % Difference (Subject #4, Day 14 vs Baseline, Topical 0.15% in PEG (Cohort 2)): −10.63% | Roughness [SEr] via Visioscan (Subject #5, Day 7, Topical 0.05% in PEG (Cohort 3)): 1.83 | Roughness [SEr] via Visioscan, Individual % Difference (Subject #5, Day 7 vs Baseline, Topical 0.05% in PEG (Cohort 3)): −29.07% | Roughness [SEr] via Visioscan (Subject #5, Day 14, Topical 0.05% in PEG (Cohort 3)): 1.77 | Roughness [SEr] via Visioscan, Individual % Difference (Subject #5, Day 14 vs Baseline, Topical 0.05% in PEG (Cohort 3)): −31.40% | Roughness [SEr] via Visioscan (Subject #6, Day 7, Topical 0.05% in PEG (Cohort 3)): 1.44 | Roughness [SEr] via Visioscan, Individual % Difference (Subject #6, Day 7 vs Baseline, Topical 0.05% in PEG (Cohort 3)): −5.26% | Roughness [SEr] via Visioscan (Subject #6, Day 14, Topical 0.05% in PEG (Cohort 3)): 1.24 | Roughness [SEr] via Visioscan, Individual % Difference (Subject #6, Day 14 vs Baseline, Topical 0.05% in PEG (Cohort 3)): −18.42%
